Source: patent US20210070748A1, “INHIBITORS OF BRUTONS TYROSINE KINASE” (Pharmacyclics LLC, priority 2015, published 2021)
Like-named read-outs stand apart in the source and are kept apart here.

Assays:
Type in all cases: biochemical
EGFR = EGFR (Homo sapiens, UniProt P00533); experiment: Inhibition of a panel of kinases, in vitro HotSpot kinase assay: EGFR
Method: (§1) The degree of inhibition of a panel of kinases is determined using the in vitro HotSpot kinase assay (purified enzymes, ^33P-ATP, an appropriate substrate and 1 μM ATP).

SRC = SRC (Homo sapiens, UniProt P12931); experiment: Inhibition of a panel of kinases, in vitro HotSpot kinase assay: SRC
Method: as §1

TEC = biological target: T1, TEC (Homo sapiens, UniProt P42680); experiment: Inhibition of a panel of kinases, in vitro HotSpot kinase assay: TEC
T1 sequence (P42680 1-631): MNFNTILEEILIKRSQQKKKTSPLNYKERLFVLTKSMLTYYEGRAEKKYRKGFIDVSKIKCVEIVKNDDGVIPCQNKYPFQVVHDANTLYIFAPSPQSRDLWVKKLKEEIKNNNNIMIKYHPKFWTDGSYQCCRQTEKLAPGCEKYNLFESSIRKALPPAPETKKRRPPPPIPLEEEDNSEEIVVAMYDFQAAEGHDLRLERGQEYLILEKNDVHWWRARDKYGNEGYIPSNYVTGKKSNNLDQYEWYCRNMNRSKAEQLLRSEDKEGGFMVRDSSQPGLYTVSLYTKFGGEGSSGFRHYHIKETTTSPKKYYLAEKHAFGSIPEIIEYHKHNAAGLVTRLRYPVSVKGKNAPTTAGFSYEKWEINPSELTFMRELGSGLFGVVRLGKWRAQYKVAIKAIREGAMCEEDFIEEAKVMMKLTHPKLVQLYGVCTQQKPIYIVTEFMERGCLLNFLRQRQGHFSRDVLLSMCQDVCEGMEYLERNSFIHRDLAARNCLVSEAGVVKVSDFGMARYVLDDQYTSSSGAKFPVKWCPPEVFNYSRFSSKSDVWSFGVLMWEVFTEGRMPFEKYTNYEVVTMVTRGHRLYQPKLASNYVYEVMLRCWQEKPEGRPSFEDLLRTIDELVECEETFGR
Method: as §1

ITK = biological target: T2, ITK (Homo sapiens, UniProt Q08881); experiment: Inhibition of a panel of kinases, in vitro HotSpot kinase assay: ITK
T2 sequence (Q08881 1-620): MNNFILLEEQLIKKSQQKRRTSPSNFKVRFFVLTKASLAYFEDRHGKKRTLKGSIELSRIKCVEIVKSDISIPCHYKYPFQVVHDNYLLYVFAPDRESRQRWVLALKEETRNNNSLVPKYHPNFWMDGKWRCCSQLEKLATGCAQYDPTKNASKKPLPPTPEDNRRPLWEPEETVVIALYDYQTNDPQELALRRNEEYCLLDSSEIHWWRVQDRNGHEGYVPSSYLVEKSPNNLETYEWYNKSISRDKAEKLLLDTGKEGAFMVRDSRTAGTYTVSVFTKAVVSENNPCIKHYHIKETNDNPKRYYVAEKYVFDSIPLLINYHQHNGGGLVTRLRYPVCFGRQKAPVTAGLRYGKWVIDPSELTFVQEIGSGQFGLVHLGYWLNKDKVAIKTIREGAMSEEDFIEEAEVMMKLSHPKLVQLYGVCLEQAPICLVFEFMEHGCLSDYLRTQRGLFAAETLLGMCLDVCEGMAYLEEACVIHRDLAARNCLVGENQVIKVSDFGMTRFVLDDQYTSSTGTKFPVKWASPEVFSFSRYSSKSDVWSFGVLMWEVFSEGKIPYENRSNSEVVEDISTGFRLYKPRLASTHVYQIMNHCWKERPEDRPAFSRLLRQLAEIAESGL
Method: as §1

JAK3 = biological target: T3, JAK3 (Homo sapiens, UniProt P52333); experiment: Inhibition of a panel of kinases, in vitro HotSpot kinase assay: JAK3; conditions: read-out: IC50 JAK3
T3 sequence (P52333 1-1124): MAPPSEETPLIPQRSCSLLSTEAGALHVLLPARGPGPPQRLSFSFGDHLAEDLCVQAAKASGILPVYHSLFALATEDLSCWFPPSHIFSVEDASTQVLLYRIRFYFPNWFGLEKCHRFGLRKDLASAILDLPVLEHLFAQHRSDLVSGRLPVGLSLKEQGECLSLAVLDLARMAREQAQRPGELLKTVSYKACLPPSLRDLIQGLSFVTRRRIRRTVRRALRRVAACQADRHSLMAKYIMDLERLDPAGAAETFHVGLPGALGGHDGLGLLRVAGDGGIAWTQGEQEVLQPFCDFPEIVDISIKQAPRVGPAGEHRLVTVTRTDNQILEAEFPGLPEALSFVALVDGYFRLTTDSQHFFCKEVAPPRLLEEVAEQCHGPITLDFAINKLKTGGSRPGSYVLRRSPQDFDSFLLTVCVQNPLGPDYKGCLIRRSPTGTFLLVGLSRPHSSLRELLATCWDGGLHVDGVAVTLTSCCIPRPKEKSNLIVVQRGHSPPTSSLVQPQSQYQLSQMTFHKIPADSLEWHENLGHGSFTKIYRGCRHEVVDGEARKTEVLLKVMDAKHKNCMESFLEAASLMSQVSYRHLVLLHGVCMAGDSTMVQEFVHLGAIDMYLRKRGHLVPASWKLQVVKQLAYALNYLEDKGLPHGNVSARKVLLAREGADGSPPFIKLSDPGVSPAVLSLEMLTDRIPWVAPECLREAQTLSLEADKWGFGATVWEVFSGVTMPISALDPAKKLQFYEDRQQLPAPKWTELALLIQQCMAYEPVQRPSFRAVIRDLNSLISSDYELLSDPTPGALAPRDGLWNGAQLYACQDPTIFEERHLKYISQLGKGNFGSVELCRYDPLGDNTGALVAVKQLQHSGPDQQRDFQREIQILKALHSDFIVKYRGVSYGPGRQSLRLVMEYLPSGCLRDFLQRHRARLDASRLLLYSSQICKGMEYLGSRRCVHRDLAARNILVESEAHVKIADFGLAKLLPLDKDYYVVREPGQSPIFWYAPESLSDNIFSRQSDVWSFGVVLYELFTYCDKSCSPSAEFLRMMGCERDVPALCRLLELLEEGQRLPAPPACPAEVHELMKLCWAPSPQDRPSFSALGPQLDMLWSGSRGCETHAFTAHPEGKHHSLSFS

LCK = LCK (Homo sapiens, UniProt P06239); experiment: Inhibition of a panel of kinases, in vitro HotSpot kinase assay: LCK; conditions: read-out: IC50 LCK
[1] = Table 13, A compounds, 1 μM ATP

Chain of SRC (P12931 whole entry): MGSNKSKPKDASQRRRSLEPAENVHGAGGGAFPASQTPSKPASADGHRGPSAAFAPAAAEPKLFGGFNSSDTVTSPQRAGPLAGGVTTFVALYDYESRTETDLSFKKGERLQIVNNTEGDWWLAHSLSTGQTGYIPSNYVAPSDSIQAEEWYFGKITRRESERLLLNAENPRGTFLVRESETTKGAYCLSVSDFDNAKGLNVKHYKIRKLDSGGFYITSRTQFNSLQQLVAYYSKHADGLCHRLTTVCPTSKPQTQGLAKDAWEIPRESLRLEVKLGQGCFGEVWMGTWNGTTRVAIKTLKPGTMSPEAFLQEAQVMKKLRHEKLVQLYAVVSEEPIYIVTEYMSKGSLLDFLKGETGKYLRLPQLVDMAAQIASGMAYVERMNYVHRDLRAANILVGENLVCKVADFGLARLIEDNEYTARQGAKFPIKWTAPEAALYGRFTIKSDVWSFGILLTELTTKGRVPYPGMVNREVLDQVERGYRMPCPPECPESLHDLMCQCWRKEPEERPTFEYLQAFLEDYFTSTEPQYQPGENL
Chain of EGFR (P00533 25-1210): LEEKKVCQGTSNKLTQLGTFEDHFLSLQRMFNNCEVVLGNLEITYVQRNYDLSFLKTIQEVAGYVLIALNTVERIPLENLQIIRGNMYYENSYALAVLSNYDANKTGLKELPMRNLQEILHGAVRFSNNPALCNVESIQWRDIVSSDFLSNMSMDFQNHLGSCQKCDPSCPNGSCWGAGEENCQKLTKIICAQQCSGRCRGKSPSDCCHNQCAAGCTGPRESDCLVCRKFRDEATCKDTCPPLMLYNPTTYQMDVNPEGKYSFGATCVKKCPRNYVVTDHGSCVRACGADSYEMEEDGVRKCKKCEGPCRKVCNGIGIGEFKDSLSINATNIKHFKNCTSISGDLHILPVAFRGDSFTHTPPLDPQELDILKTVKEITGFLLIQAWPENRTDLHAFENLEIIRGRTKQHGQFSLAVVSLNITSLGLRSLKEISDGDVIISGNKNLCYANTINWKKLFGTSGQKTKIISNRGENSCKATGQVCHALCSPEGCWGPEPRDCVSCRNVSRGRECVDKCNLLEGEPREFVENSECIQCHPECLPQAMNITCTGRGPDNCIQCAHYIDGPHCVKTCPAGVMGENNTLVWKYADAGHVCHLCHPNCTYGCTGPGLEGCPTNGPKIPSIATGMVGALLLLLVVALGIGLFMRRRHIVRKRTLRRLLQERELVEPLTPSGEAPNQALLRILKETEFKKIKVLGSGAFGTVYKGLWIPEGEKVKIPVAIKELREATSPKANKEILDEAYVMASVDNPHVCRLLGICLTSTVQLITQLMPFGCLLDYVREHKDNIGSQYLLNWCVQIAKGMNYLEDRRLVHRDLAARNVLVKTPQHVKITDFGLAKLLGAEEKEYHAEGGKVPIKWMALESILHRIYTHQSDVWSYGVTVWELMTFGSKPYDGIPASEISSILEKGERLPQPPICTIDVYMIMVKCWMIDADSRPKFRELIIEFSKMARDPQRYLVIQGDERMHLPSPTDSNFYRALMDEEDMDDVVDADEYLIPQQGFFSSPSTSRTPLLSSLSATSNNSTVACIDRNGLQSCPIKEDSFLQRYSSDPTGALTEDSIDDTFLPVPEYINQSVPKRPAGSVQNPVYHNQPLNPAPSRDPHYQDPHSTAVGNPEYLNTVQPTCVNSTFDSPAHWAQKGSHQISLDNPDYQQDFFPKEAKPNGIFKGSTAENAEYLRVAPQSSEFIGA
Chain of LCK (P06239 whole entry): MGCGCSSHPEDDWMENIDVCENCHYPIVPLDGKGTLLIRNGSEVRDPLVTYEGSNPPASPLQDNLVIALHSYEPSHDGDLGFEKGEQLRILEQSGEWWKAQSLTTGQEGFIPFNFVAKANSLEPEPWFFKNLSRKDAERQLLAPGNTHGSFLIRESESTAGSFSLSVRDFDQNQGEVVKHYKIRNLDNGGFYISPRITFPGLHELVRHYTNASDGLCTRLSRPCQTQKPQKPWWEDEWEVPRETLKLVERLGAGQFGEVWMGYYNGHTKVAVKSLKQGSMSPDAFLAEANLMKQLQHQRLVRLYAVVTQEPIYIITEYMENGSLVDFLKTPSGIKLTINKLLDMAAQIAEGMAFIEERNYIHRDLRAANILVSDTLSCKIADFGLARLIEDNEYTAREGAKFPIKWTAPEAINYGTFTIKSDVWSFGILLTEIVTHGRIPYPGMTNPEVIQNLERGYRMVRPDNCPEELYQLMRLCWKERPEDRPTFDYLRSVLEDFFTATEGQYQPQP

Row | IC50 (EGFR; E compounds, Table 17) | IC50 (SRC; E compounds, Table 17) | IC50 (EGFR; [1]) | IC50 (SRC; [1]) | IC50 (TEC; [1]) | IC50 (ITK; [1]) | IC50 (JAK3; [1]) | IC50 (LCK; [1]) | SMILES | IC50 (TEC; E compounds, Table 17) | IC50 (ITK; E compounds, Table 17) | IC50 (JAK3; E compounds, Table 17) | IC50 (LCK; E compounds, Table 17)
1 | 1000 to 10000 nM | 10 to 100 nM |  |  |  |  |  |  | C[C@@H]1[C@H](NC(=O)c2cc(C(C)(C)C)nn2C)CCCN1c1cnc(C(N)=O)c(Nc2cnn(C)c2)n1 [Example E-146, 5-((2R,3R)-3-(3-(tert-butyl)-1-methyl-1H-pyrazole-5-carboxamido)-2-methylpiperidin-1-yl)-3-((1-methyl-1H-pyrazol-4-yl)amino)pyrazine-2-carboxamide] | ≤ 10 nM | 100 to 1000 nM | 1000 to 10000 nM | 10 to 100 nM
2 | ≤ 10 nM |  |  |  |  |  |  |  | C=CC(=O)N1CCC[C@@H](Nc2nnc(C(N)=O)c(Nc3ccc(C(C)(C)C)cc3)n2)C1 [Example E-24, (R)-3-(1-acryloylpiperidin-3-ylamino)-5-(4-tert-butylphenylamino)-1,2,4-triazine-6-carboxamide] | ≤ 10 nM | ≤ 10 nM | < 10 nM | 100 to 1000 nM
3 |  | 100 to 1000 nM |  |  |  |  |  |  | C=CC(=O)N1CCC[C@@H](N(C)c2cnc(C(N)=O)c(Nc3ccc(C(C)C)cc3)n2)C1 [Example E-102, (R)-5-((1-acryloylpiperidin-3-yl)(methyl)amino)-3-(4-isopropylphenylamino) pyrazine-2-carboxamide] | ≤ 10 nM | 10 to 100 nM | 10 to 100 nM | 1000 to 10000 nM
4 |  | 10 to 100 nM |  |  |  |  |  |  | CC(C)c1ccc(Nc2nc(N3CCC[C@@H](N4CCC[C@@H](Nc5cc(Cl)cc(C(F)(F)F)c5)C4=O)C3)nnc2C(N)=O)cc1 [Example E-128, 3-((3R,3′R)-3-((3-chloro-5-(trifluoromethyl)phenyl)amino)-2-oxo-[1,3′-bipiperidin]-1′-yl)-5-((4-isopropylphenyl)amino)-1,2,4-triazine-6-carboxamide] | 1000 to 10000 nM | 10 to 100 nM | 1000 to 10000 nM | 10 to 100 nM

Continued, compound first:

Row | SMILES | IC50 (EGFR; E compounds, Table 17) | IC50 (SRC; E compounds, Table 17) | IC50 (EGFR; [1]) | IC50 (SRC; [1]) | IC50 (TEC; [1]) | IC50 (ITK; [1]) | IC50 (JAK3; [1]) | IC50 (LCK; [1]) | IC50 (TEC; E compounds, Table 17) | IC50 (ITK; E compounds, Table 17) | IC50 (JAK3; E compounds, Table 17) | IC50 (LCK; E compounds, Table 17)
5 | COCCN(C)Cc1cc(Nc2nc(N3CCC[C@@H](NC(=O)c4ccc(C5CC5)cc4)[C@H]3C)cnc2C(N)=O)sn1 [Example A-185, 5-((2R,3R)-3-(4-cyclopropylbenzamido)-2-methylpiperidin-1-yl)-3-(3-(((2-methoxyethyl)(meth-yl)amino)meth-yl)isothiazol-5-ylamino)pyr-azine-2-carboxamide] |  |  | > 10000 nM | 10 to 100 nM | 100 to 1000 nM | 100 to 1000 nM | 1000 to 10000 nM | 100 to 1000 nM |  |  |  | 
6 | C[C@@H]1[C@H](NC(=O)c2ccc(C3CC3)cc2F)CCCN1c1cnc(C(N)=O)c(Nc2cc(CN3CCOCC3)ns2)n1 [Example A-128, 5-[(2R,3R)-3-(4-cyclopropyl-2-fluorobenzamido)-2-methylpiperidin-1-yl]-3-{[3-(morpholin-4-ylmethyl)-1,2-thiazol-5-yl]amino}pyrazine-2-carboxamide] |  |  | 100 to 1000 nM | 10 to 100 nM | 10 to 100 nM | 100 to 1000 nM | 100 to 1000 nM | 10 to 100 nM |  |  |  | 
7 | C=CC(=O)N1CCC[C@@H](Nc2nnc(C(N)=O)c(Nc3ccc(Cl)cc3)n2)[C@H]1C [Example E-7, 3-(((2R,3R)-1-acryloyl-2-methylpiperidin-3-yl)amino)-5-((4-chlorophenyl)amino)-1,2,4-triazine-6-carboxamide] |  |  |  |  |  |  |  |  | ≤ 10 nM | ≤ 10 nM | < 10 nM | < 10 nM
8 | CC1(c2ccc(Nc3nc(N4CCC[C@@H](n5ccc6cc(C7CC7)ccc6c5=O)C4)cnc3C(N)=O)cc2)CCN(C2CCCC2)CC1 [Example A-141, 3-{[4-(1-cyclopentyl-4-methylpiperidin-4-yl)phenyl]amino}-5-[(3R)-3-(6-cyclopropyl-1-oxo-1,2-dihydroisoquinolin-2-yl)piperidin-1-yl]pyrazine-2-carboxamide] |  |  | 100 to 1000 nM | 10 to 100 nM | ≤ 10 nM | 10 to 100 nM | 100 to 1000 nM | 10 to 100 nM |  |  |  | 
9 | C[C@@H]1[C@H](NC(=O)c2ccc(C3CC3)cc2)CCCN1c1cnc(C(N)=O)c(Nc2cnn(C)c2)n1 [Example A-169, 5-[(2R,3R)-3-(4-cyclopropylbenzamido)-2-methylpiperidin-1-yl]-3-[(1-methyl-1H-pyrazol-4-yl)amino]pyrazine-2-carboxamide] |  |  | 1000 to 10000 nM | 100 to 1000 nM | 10 to 100 nM | 1000 to 10000 nM | 1000 to 10000 nM | 100 to 1000 nM |  |  |  | 
10 | C=CC(=O)N[C@@H]1CCCN(c2nnc(C(N)=O)c(Nc3ccc(Cl)cc3)n2)[C@@H]1C [Example E-5, 3-((2R,3R)-3-acrylamido-2-methylpiperidin-1-yl)-5-((4-chlorophenyl)amino)-1,2,4-triazine-6-carboxamide] |  |  |  |  |  |  |  |  | ≤ 10 nM | 10 to 100 nM | < 10 nM | < 10 nM
11 | C=CC(=O)N[C@@H]1CCCN(c2nnc(C(N)=O)c(Nc3ccc(C4(C)CCN(C5CC5)CC4)cc3)n2)[C@@H]1C [Example E-2, 3-((2R,3R)-3-acrylamido-2-methylpiperidin-1-yl)-5-((4-(1-cyclopropyl-4-methylpiperidin-4-yl)phenyl)amino)-1,2,4-triazine-6-carboxamide] |  |  |  |  |  |  |  |  | ≤ 10 nM | 10 to 100 nM | 10 to 100 nM | 100 to 1000 nM
12 | C=CC(=O)N1CCC[C@@H](Nc2nnc(C(N)=O)c(Nc3ccc(C4(C)CCN(C5CC5)CC4)cc3)n2)[C@H]1C [Example E-127, 3-(((2R,3R)-1-acryloyl-2-methylpiperidin-3-yl)amino)-5-((4-(1-cyclopropyl-4-methylpiperidin-4-yl)phenyl)amino)-1,2,4-triazine-6-carboxamide] |  | ≤ 10 nM |  |  |  |  |  |  | ≤ 10 nM | ≤ 10 nM | < 10 nM | < 10 nM
